Reference: patent US20250302775A1, “METHODS FOR THE TREATMENT OF DEPRESSION” (Autobahn Therapeutics, Inc., priority 2022, published 2025)

The compounds below were run against T1, recombinant human FAAH (rhFAAH) (Homo sapiens, UniProt O00519) (assay: FAAH substrate evaluation: formation of acid metabolite). Settings: 0.5 ng/μL rhFAAH, 1 μM test compound, room temperature, pH 8.0, 0-60 minutes.
T1 construct: purchased Cayman Chemical (Ann Arbor, MI, USA)
T1 sequence (O00519 1-579): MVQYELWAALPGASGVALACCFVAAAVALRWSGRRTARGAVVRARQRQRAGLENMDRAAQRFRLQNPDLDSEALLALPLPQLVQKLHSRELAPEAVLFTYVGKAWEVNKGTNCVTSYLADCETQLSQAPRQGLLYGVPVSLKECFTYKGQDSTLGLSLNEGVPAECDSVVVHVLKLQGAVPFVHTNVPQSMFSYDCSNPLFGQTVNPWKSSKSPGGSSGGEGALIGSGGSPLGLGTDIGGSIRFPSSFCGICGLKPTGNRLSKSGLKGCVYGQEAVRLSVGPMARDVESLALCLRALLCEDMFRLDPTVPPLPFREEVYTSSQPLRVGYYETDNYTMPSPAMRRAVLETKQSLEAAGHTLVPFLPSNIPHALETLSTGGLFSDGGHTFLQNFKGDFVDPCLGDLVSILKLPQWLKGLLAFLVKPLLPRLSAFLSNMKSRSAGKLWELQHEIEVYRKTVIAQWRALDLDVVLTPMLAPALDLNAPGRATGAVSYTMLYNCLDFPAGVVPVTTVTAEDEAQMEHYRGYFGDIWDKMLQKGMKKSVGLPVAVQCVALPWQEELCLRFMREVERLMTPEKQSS
Assay type: biochemical
Protocol: Purified recombinant human FAAH (rhFAAH) was purchased from Cayman Chemical (Ann Arbor, MI, USA). The total volume for each incubation was 400 μL containing a final 0.5 ng/μL rhFAAH, 1 μM test compound, 1.25% ethanol or 1 μM PF-3845 (FAAH inhibitor), and 0.1% bovine serum albumin in Tris-EDTA buffer at pH 8.0). The positive control was LL-341001. The incubation was conducted at the room temperature. At 0, 5, 15, 30 and 60 minutes, an aliquot of 30 μL reaction mixtures was removed and mixed with 300 μL acetonitrile containing 5 ng/mL terfenadine and 10 ng/mL tolbutamide as internal standards to quench the reaction. The resulting mixture was centrifuged at 4000 rpm, 4° C. for 15 minutes, and 100 μL supernatant was ready for LC-MS/MS analysis to measure the formation of acid metabolite.
Acquity Ultra Performance LC system from Waters was used for sample analysis. The chromatography was performed on a reverse phase Kinetex 2.6 μm C18 column, 2.1×30 mm, 100 Å. The mobile phase A comprised of 0.1% formic acid in water and mobile phase B comprised of 0.1% formic acid in acetonitrile with a 2-min run time at the flow rate of 0.8 mL/min for the acid metabolite from positive control or a 1.5 min run time at the flow rate of 0.9 mL/min for the acid metabolite of test compounds. The mass spectrometer (API-5500 and API Q Trap 4000 Applied Biosystems/MDS SCIEX Instruments, Framingham, MA, USA) was operated under ESI positive or negative ion MRM mode.
The formation of acid metabolite was monitored and quantified using one calibration point of 1 μM. The observed rate constant (ke) for the acid metabolite formation was calculated by plotting the metabolite concentration versus time of incubation with the slope being ke and is shown in Table 1.

Compound | ke (observed rate constant for the acid metabolite formation)
CCNC(=O)COc1cc(Cl)c(Cc2ccc(O)c(C(C)C)c2)c(Cl)c1 [Compound 2] | A (A = ke is more than or equal to 0.1)
CCCNC(=O)COc1cc(Cl)c(Cc2ccc(O)c(C(C)C)c2)c(Cl)c1 [Compound 3] | A (A = ke is more than or equal to 0.1)
C=CCNC(=O)COc1cc(Cl)c(Cc2ccc(O)c(C(C)C)c2)c(Cl)c1 [Compound 4] | A (A = ke is more than or equal to 0.1)
C#CCNC(=O)COc1cc(Cl)c(Cc2ccc(O)c(C(C)C)c2)c(Cl)c1 [Compound 5] | A (A = ke is more than or equal to 0.1)
CC(C)c1cc(Cc2c(Cl)cc(OCC(=O)NCCO)cc2Cl)ccc1O [Compound 6] | A (A = ke is more than or equal to 0.1)
CC(C)c1cc(Cc2c(Cl)cc(OCC(=O)NC[C@@H](C)O)cc2Cl)ccc1O [Compound 7] | B (B = ke is less than 0.1 and more than 0)
CC(C)c1cc(Cc2c(Cl)cc(OCC(=O)NC[C@H](C)O)cc2Cl)ccc1O [Compound 8] | B (B = ke is less than 0.1 and more than 0)
CC(C)c1cc(Cc2c(Cl)cc(OCC(=O)N[C@H](C)CO)cc2Cl)ccc1O [Compound 9] | A (A = ke is more than or equal to 0.1)
CC(C)c1cc(Cc2c(Cl)cc(OCC(=O)N[C@@H](C)CO)cc2Cl)ccc1O [Compound 10] | A (A = ke is more than or equal to 0.1)
CC(C)c1cc(Cc2c(Cl)cc(OCC(=O)NC(CO)CO)cc2Cl)ccc1O [Compound 11] | B (B = ke is less than 0.1 and more than 0)
CC(C)c1cc(Cc2c(Cl)cc(OCC(=O)NCCN)cc2Cl)ccc1O [Compound 12] | B (B = ke is less than 0.1 and more than 0)
CC(C)c1cc(Cc2c(Cl)cc(OCC(=O)NCCS(=O)O)cc2Cl)ccc1O [Compound 13] | B (B = ke is less than 0.1 and more than 0)
CC(C)c1cc(Cc2c(Cl)cc(OCC(=O)NCCF)cc2Cl)ccc1O [Compound 14] | A (A = ke is more than or equal to 0.1)
CC(C)c1cc(Cc2c(Cl)cc(OCC(=O)N(C)C)cc2Cl)ccc1O [Compound 19] | B (B = ke is less than 0.1 and more than 0)
CC(C)c1cc(Cc2c(Cl)cc(OCC(=O)NCCc3ccccc3)cc2Cl)ccc1O [Compound 23] | B (B = ke is less than 0.1 and more than 0)
CC(C)c1cc(Cc2c(Cl)cc(OCC(=O)NCCc3ccc(O)c(O)c3)cc2Cl)ccc1O [Compound 24] | B (B = ke is less than 0.1 and more than 0)
CNC(=O)COc1cc(Cl)c(Cc2ccc(O)c(C(C)C)c2)c(Cl)c1F [Compound 37] | B (B = ke is less than 0.1 and more than 0)
CC(C)c1cc(Cc2c(Cl)cc(OCC(=O)N(C)C)c(F)c2Cl)ccc1O [Compound 38] | B (B = ke is less than 0.1 and more than 0)
CNC(=O)COc1cc(Cl)c(Cc2ccc(O)c(C(C)C)c2F)c(Cl)c1F [Compound 39] | B (B = ke is less than 0.1 and more than 0)
CC(C)c1c(O)ccc(Cc2c(Cl)cc(OCC(=O)N(C)C)c(F)c2Cl)c1F [Compound 40] | B (B = ke is less than 0.1 and more than 0)

Now from value to compound:

ke (observed rate constant for the acid metabolite formation) | Compound
A (A = ke is more than or equal to 0.1) | CC(C)c1cc(Cc2c(Cl)cc(OCC(=O)NCC(F)F)cc2Cl)ccc1O [Compound 15]
A (A = ke is more than or equal to 0.1) | CC(C)c1cc(Cc2c(Cl)cc(OCC(=O)NCC(F)(F)F)cc2Cl)ccc1O [Compound 16]
A (A = ke is more than or equal to 0.1) | CC(C)c1cc(Cc2c(Cl)cc(OCC(=O)NC3CC3)cc2Cl)ccc1O [Compound 17]
A (A = ke is more than or equal to 0.1) | CC(C)c1cc(Cc2c(Cl)cc(OCC(=O)NC3COC3)cc2Cl)ccc1O [Compound 18]
A (A = ke is more than or equal to 0.1) | CC(C)c1cc(Cc2c(Cl)cc(OCC(=O)Nc3ccccc3O)cc2Cl)ccc1O [Compound 20]
A (A = ke is more than or equal to 0.1) | CC(C)c1cc(Cc2c(Cl)cc(OCC(=O)Nc3cccc(O)c3)cc2Cl)ccc1O [Compound 21]
A (A = ke is more than or equal to 0.1) | CC(C)c1cc(Cc2c(Cl)cc(OCC(=O)NCc3ccccc3)cc2Cl)ccc1O [Compound 22]
A (A = ke is more than or equal to 0.1) | CC(C)c1cc(Cc2c(Cl)cc(OCC(=O)Nc3cccc(F)c3)cc2Cl)ccc1O [Compound 25]
A (A = ke is more than or equal to 0.1) | CC(C)c1cc(Cc2c(Cl)cc(OCC(=O)NO)cc2Cl)ccc1O [Compound 26]
A (A = ke is more than or equal to 0.1) | CC(C)c1cc(Cc2c(Cl)cc(OCC(=O)NN)cc2Cl)ccc1O [Compound 27]
A (A = ke is more than or equal to 0.1) | CONC(=O)COc1cc(Cl)c(Cc2ccc(O)c(C(C)C)c2)c(Cl)c1 [Compound 28]
A (A = ke is more than or equal to 0.1) | CC(C)c1cc(Cc2c(Cl)cc(OCC(=O)NCC#N)cc2Cl)ccc1O [Compound 29]
A (A = ke is more than or equal to 0.1) | CC(C)c1cc(Cc2c(Cl)cc(OCC(=O)NCCS(C)(=O)=O)cc2Cl)ccc1O [Compound 30]
A (A = ke is more than or equal to 0.1) | CC(C)c1c(O)ccc(Cc2c(Cl)cc(OCC(=O)N(C)C)cc2Cl)c1F [Compound 32]
A (A = ke is more than or equal to 0.1) | CCNC(=O)COc1cc(Cl)c(Cc2ccc(O)c(C(C)C)c2F)c(Cl)c1 [Compound 33]
C (C = ke is 0) | CCN(C)C(=O)COc1cc(Cl)c(Cc2ccc(O)c(C(C)C)c2F)c(Cl)c1 [Compound 34]
A (A = ke is more than or equal to 0.1) | CC(C)c1c(O)ccc(Cc2c(Cl)cc(OCC(N)=O)cc2Cl)c1F [Compound 35]
A (A = ke is more than or equal to 0.1) | CC(C)c1c(O)ccc(Cc2c(Cl)cc(OCC(=O)NCCF)cc2Cl)c1F [Compound 36]
A (A = ke is more than or equal to 0.1) | CNC(=O)COc1cc(F)c(Cc2ccc(O)c(C(C)C)c2)c(Cl)c1F [Compound 42]
A (A = ke is more than or equal to 0.1) | CON(C)C(=O)COc1cc(Cl)c(Cc2ccc(O)c(C(C)C)c2F)c(Cl)c1 [Compound 44]
A (A = ke is more than or equal to 0.1) | CC(C)c1c(O)ccc(Cc2c(Cl)cc(OCC(=O)NN(C)C)cc2Cl)c1F [Compound 45]
A (A = ke is more than or equal to 0.1) | COc1ccc(NC(=O)COc2cc(Cl)c(Cc3ccc(O)c(C(C)C)c3)c(Cl)c2)cn1 [Compound 101]
A (A = ke is more than or equal to 0.1) | CC(C)c1cc(Cc2c(Cl)cc(OCC(=O)Nc3cnccn3)cc2Cl)ccc1O [Compound 102]
A (A = ke is more than or equal to 0.1) | Cc1noc(NC(=O)COc2cc(Cl)c(Cc3ccc(O)c(C(C)C)c3)c(Cl)c2)c1C [Compound 103]
A (A = ke is more than or equal to 0.1) | CC(C)c1cc(Cc2c(Cl)cc(OCC(=O)Nc3cccnn3)cc2Cl)ccc1O [Compound 104]
C (C = ke is 0) | CC(C)c1cc(Cc2c(Cl)cc(OCC(=O)NC3CCCCC3)cc2Cl)ccc1O [Compound 105]
